We go through 25 compounds from patent US6117886A, “Tetrazole derivatives” (Kowa Co., Ltd., priority 1997, dated 2000).

Counter-ions that a name gives are not always drawn.

The target in one assay is T1, LTD4 Receptor (Cavia porcellus, UniProt Q2NNR5).
T1 construct: guinea pig lung protein; from tissue; host or cells: guinea pig lung
T1 sequence (Q2NNR5 1-340): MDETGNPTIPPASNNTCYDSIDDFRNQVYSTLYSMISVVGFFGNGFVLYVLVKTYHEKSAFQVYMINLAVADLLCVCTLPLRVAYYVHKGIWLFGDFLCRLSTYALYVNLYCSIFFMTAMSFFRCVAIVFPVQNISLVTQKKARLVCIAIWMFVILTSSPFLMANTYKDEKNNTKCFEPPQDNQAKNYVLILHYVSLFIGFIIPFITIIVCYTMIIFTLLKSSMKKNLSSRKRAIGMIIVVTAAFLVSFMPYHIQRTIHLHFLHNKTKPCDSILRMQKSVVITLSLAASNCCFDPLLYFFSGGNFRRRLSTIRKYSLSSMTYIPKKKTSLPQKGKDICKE
Put plainly: LTD4 Receptor Binding Inhibitory Test. The arrangement: species or system guinea pig. The protocol: Reaction was stopped by addition of ice-cold Tris-HCl/NaCl (10 mM/100 mM, pH 7.5) buffer, and immediately thereafter, the reaction mixture was filtered by use of a Wattman CF/C filter. The filter was washed twice, each time with 20 ml ice-cold buffer. Radioactivity of the residue was measured by use of a liquid scintillation counter. […] In a saturation test, 2 μM leukotriene D4 was used for the measurement of the amount of non-specific binding.

For a further assay, the target named is T2, H1 Receptor (Cavia porcellus, UniProt P31389).
T2 construct: guinea pig cerebral membrane protein; from tissue; host or cells: guinea pig cerebral membranes
T2 sequence (P31389 whole entry): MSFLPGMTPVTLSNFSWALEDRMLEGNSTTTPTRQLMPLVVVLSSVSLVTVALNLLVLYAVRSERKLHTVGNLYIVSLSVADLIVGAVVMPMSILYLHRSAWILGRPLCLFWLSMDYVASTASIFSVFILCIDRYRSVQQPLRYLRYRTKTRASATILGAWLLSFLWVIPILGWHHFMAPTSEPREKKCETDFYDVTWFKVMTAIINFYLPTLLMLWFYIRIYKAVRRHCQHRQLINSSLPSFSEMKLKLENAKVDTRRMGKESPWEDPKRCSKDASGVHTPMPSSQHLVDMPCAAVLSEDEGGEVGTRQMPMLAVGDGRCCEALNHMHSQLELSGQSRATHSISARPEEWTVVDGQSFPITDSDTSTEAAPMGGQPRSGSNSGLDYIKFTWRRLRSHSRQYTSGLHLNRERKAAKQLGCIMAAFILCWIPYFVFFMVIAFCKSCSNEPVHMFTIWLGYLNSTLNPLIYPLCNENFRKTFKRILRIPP
The assay is described as follows: H1 Receptor Binding Inhibitory Test. Set-up: species or system guinea pig. The procedure: Reaction was stopped by addition of ice-cold phosphate buffer, and immediately thereafter, the reaction mixture was filtered by use of a Wattman CF/C filter. The filter was washed twice, each time with 20 ml ice-cold buffer. Radioactivity of the residue was measured by use of a liquid scintillation counter. From the value as obtained when a test compound was not added and values as obtained when the test compound was added at different concentrations, there was determined a dose-response curve representing suppression action of the test compound, from which a 50% inhibitory concentration (IC50) was obtained. Based on the IC50 value and by use of the Cheng-Prusoff equation, a dissociation constant (KD) was calculated (Table 9). In a saturation test, 10^-4 M R(-)-dimetindene was used for the measurement of the amount of non-specific binding.

Assay [1] addresses guinea pig ileum, contraction in response to histamine (Cavia porcellus, UniProt P31389). Put plainly: Antihistaminic action, in vitro test on isolated ileum (contraction in response to histamine). As to conditions: 10^-8 to 10^-4 M histamine dose-response curve, 30 min after test compound, 29° C; for Kb: read-out: Anti-histaminic action, pA2 (converted).
Assay [2] deals with guinea pig ileum, contraction induced with LTD4. Put plainly: Antileukotriene action, in vitro test on isolated ileum (contraction induced with LTD4). As to conditions: contraction induced with 10^-8 M LTD4; 29° C; read-out: Anti-LTD4 action IC50.

Chain of guinea pig ileum, contraction in response to histamine (P31389 whole entry): as above

Turning to `CC(=O)Oc1ccc2[nH]c(=O)c(-c3nnn(Cc4ccc(OCc5ccc6ccccc6n5)cc4)n3)cc2c1` [Example 56, 6-Acetoxy-3-{2-[4-(2-quinolylmethoxy)benzyl]-tetrazolyl}quinolin-2-one], the Kd is 336 nM on LTD4 Receptor and 84700 nM on H1 Receptor.

On to `Cn1c(COc2cccc(Cn3nnc(-c4cc5ccccc5[nH]c4=O)n3)c2)nc2ccccc21` [Example 8, 3-{2-[3-(N-Methylbenzimidazol-2-ylmethoxy)benzyl]tetrazolyl}quinolin-2-one], for which the Kd at LTD4 Receptor came to 143 nM; on H1 Receptor, 9380 nM.

For `COc1ccc2c(c1)cc(-c1nnn(Cc3cccc(OCc4ccc5ccccc5n4)c3)n1)c(=O)n2CCN(C)C` [Example 41, 1-Dimethylaminoethyl-6-methoxy-3-{2-[3-(2-quinolylmethoxy)benzyl]tetrazolyl}quinolin-2-one], in assay [1], the “Anti-histaminic action, pD'2” value came out at 5.58.

`O=c1[nH]c2ccc(O)cc2cc1-c1nnn(Cc2ccc(OCc3ccc4ccccc4n3)cc2)n1` [Example 22, 6-Hydroxy-3-{2-[4-(2-quinolylmethoxy)benzyl]-tetrazolyl}quinolin-2-one]: the results for the Kd at LTD4 Receptor and at H1 Receptor were 364 nM and 30100 nM, respectively.

As for `NCC(=O)Oc1ccc2[nH]c(=O)c(-c3nnn(Cc4cccc(OCc5ccc6ccccc6n5)c4)n3)cc2c1` [Example 64, 6-Glycyloxy-3-{2-[3-(2-quinolylmethoxy)-benzyl]tetrazolyl}quinolin-2-one], the Kd at LTD4 Receptor is 22.1 nM; on H1 Receptor, 61900 nM.

Consider `O=c1[nH]c2ccccc2cc1-c1nnn(Cc2cccc(OCc3ccc4ccccc4n3)c2)n1` [Example 26, 3-{2-[3-(2-Quinolylmethoxy)benzyl]-tetrazolyl}quinolin-2-one], for which, in assay [2], the IC50 was found to be 179 nM. The values for the Kd on LTD4 Receptor and at H1 Receptor were 179 nM and 89500 nM, respectively. Besides, the “Anti-histaminic action, pD'2” value in assay [1] was 5.24.

In the case of `COc1ccc2[nH]c(=O)c(-c3nnn(Cc4ccc(OCc5ccc6ccccc6n5)cc4)n3)cc2c1` [Example 24, 6-Methoxy-3-{2-[4-(2-quinolylmethoxy)benzyl]-tetrazolyl}quinolin-2-one], the results for the dissociation constant Kd on LTD4 Receptor and on H1 Receptor were 205 nM and 9510 nM, respectively.

In the case of `CN(C)CCCn1c(=O)c(-c2nnn(Cc3cccc(OCc4ccc5ccccc5n4)c3)n2)cc2cc(O)ccc21` [Example 42, 1-Dimethylaminopropyl-6-hydroxy-3-{2-[3-(2-quinolylmethoxy)benzyl]tetrazolyl}quinolin-2-one], the Kb in assay [1] is 55 nM.

For `COc1ccc2c(c1)cc(-c1nnn(Cc3cccc(OCc4ccc5ccccc5n4)c3)n1)c(=O)n2CCCCN1CCN(Cc2ccc3ccccc3n2)CC1` [Example 47, 6-Methoxy-1-{4-[4-(2-quinolylmethyl)-piperazinyl]butyl}-3-{2-[3-(2-quinolylmethoxy)benzyl]tetrazolyl}quinolin-2-one dimalate], in assay [1], the Kb was 20 nM.

In the case of `COc1ccc2c(c1)cc(-c1nnn(Cc3cccc(OCc4ccc5ccccc5n4)c3)n1)c(=O)n2C` [Example 38, 6-methoxy-1-methyl-3-{2-[3-(2-quinolylmethoxy)benzyl]tetrazolyl}quinolin-2-one], the IC50 in assay [2] amounted to 160 nM. Further, the “Anti-histaminic action, pD'2” value in assay [1] is 5.52.

On to `COc1ccc2[nH]c(=O)c(-c3nnnn3Cc3cccc(OCc4ccc5ccccc5n4)c3)cc2c1` [Example 2, 6-methoxy-3-{1-[3-(2-quinolylmethoxy)benzyl]tetrazolyl}quinolin-2-one], for which the IC50 in assay [2] amounted to 250 nM. Also, in assay [1], the Kb was 4170 nM.

Turning to `CC(=O)Oc1ccc2[nH]c(=O)c(-c3nnn(Cc4cccc(OCc5ccc6ccccc6n5)c4)n3)cc2c1` [Example 58, 6-Acetoxy-3-{2-[3-(2-quinolylmethoxy)benzyl]-tetrazolyl}quinolin-2-one], the Kd on LTD4 Receptor came to 38.2 nM; on H1 Receptor it was 480000 nM.

Regarding `CC(C)(C)c1ccc2[nH]c(=O)c(-c3nnnn3Cc3cccc(OCc4ccc5ccccc5n4)c3)cc2c1` [Example 18, 6-tert-Butyl-3-{1-[3-(2-quinolylmethoxy)-benzyl]tetrazolyl}quinolin-2-one], the Kd was found to be 509 nM at LTD4 Receptor and 22800 nM at H1 Receptor.

`CN(C)CCn1c(=O)c(-c2nnnn2Cc2cccc(OCc3ccc4ccccc4n3)c2)cc2cc(O)ccc21` [Example 40, 1-Dimethylaminoethyl-6-hydroxy-3-{1-[3-(2-quinolylmethoxy)benzyl]tetrazolyl}quinolin-2-one]: the Kb in assay [1] is 251 nM.

With `CN1CCN(CCCOc2ccc3c(c2)cc(-c2nnn(Cc4cccc(OCc5ccc6ccccc6n5)c4)n2)c(=O)n3C)CC1` [Example 52, 1-methyl-6-[3-(4-metylpiperazinyl)propyl]oxy-3-{2-[3-(2-quinolylmethoxy)benzyl]tetrazolyl}quinolin-2-one trihydrochloride], in assay [2], the IC50 stood at 1300 nM. Besides, the Kb in assay [1] is 912 nM.

`COc1ccc2[nH]c(=O)c(-c3nnn(Cc4cccc(OCc5ccc6ccccc6n5)c4)n3)cc2c1` [Example 1, 6-methoxy-3-{2-[3-(2-quinolylmethoxy)benzyl]tetrazolyl}quinolin-2-one]: in assay [2], the IC50 amounted to 90 nM. Also, the Kd amounted to 114 nM on LTD4 Receptor and 2960 nM on H1 Receptor. Further, the “Anti-histaminic action, pD'2” value in assay [1] is on record as 5.53.

Turning to `CN(C)CCn1c(=O)c(-c2nnn(Cc3cccc(OCc4ccc5ccccc5n4)c3)n2)cc2cc(O)ccc21` [Example 39, 1-Dimethylaminoethyl-6-hydroxy-3-{2-[3-(2-quinolylmethoxy)benzyl]tetrazolyl}quinolin-2-one], in assay [1], the Kb is 30.2 nM.

In the case of `COc1ccc2c(c1)cc(-c1nnn(Cc3cccc(OCc4ccc5ccccc5n4)c3)n1)c(=O)n2CCCN1CCN(Cc2ccccn2)CC1` [Example 48, 6-Methoxy-1-{3-[4-(2-pyridylmethyl)-piperazinyl]propyl}-3-{2-[3-(2-quinolylmethoxy)benzyl]tetrazolyl}quinolin-2-one dihydrochloride], the Kb in assay [1] is 115 nM.

For `CCOCCn1c(COc2ccc(Cn3nnc(-c4cc5cc(OC)ccc5[nH]c4=O)n3)cc2)nc2ccccc21` [Example 6, 3-{2-{4-[N-(2-Ethoxyethyl)benzimidazol-2-ylmethoxy]benzyl}tetrazolyl}-6-methoxyquinolin-2-one], the IC50 in assay [2] was 1100 nM. The Kd at LTD4 Receptor was found to be 8110 nM; at H1 Receptor, 3290 nM. Moreover, the Kb in assay [1] was 40.7 nM.

On to `COc1ccc2c(c1)cc(-c1nnn(Cc3cccc(OCc4ccc5ccccc5n4)c3)n1)c(=O)n2CCCN1CCN(Cc2ccc3ccccc3n2)CC1` [Example 45, 1-{3-[4-(2-quinolylmethyl)-1-piperazinyl]propyl}-6-methoxy-3-(2-[3-(2-quinolylmethoxy)benzyl]tetrazolyl)quinolin-2-one dihydrochloride], for which, in assay [2], the half-inhibitory concentration (IC50) was 640 nM. The Kb in assay [1] was 21.9 nM.

For `O=c1[nH]c2ccc(O)cc2cc1-c1nnn(Cc2cccc(OCc3ccc4ccccc4n3)c2)n1` [Example 28, 6-Hydroxy-3-{2-[3-(2-quinolylmethoxy)benzyl]-tetrazolyl}quinolin-2-one], the results for the Kd at LTD4 Receptor and on H1 Receptor were 21 nM and 13900 nM, respectively.

As to `CN(C)CCn1c(=O)c(-c2nnn(Cc3cccc(C=Cc4ccc5ccccc5n4)c3)n2)cc2cc(O)ccc21` [Example 43, 1-Dimethylaminoethyl-6-hydroxy-3-{2-[3-(2-quinolylethenyl)benzyl]tetrazolyl}quinolin-2-one], in assay [1], the Kb is 174 nM.

For `Cn1c(COc2cccc(Cn3nnnc3-c3cc4ccccc4[nH]c3=O)c2)nc2ccccc21` [Example 9, 3-{1-[3-(N-Methylbenzimidazol-2-ylmethoxy)benzyl]tetrazolyl}quinolin-2-one], the dissociation constant (Kd) on LTD4 Receptor amounted to 320 nM; at H1 Receptor, 13700 nM.

Consider `COc1ccc2[nH]c(=O)c(-c3nnnn3Cc3ccc(OCc4ccc5ccccc5n4)cc3)cc2c1` [Example 25, 6-Methoxy-3-{1-[4-(2-quinolylmethoxy)benzyl]-tetrazolyl}quinolin-2-one], for which the Kd at LTD4 Receptor turned out to be 5.86 nM; at H1 Receptor, 13900 nM.

Regarding `O=c1[nH]c2ccc(O)cc2cc1-c1nnnn1Cc1cccc(OCc2ccc3ccccc3n2)c1` [Example 29, 6-Hydroxy-3-{1-[3-(2-quinolylmethoxy)benzyl]-tetrazolyl}quinolin-2-one], the Kd was 13.6 nM on LTD4 Receptor and 57200 nM on H1 Receptor.
